Results on three molecules are retold here after patent US20200239530A1, “COMPOUNDS AND METHODS OF MODULATING PROTEIN DEGRADATION” (Vividion Therapeutics, Inc., priority 2017, published 2020).

Each structure is given as a SMILES string.

Test in all cases: Cysteine liganding, probe competition
Format in all cases: binding

The target in one assay is T1, UniProt O00635 (Homo sapiens, UniProt O00635).
T1 construct: 200 μL of lysate containing 5 mg/ml proteome was treated with 2 μL of 100× compound stock; endogenous in cells
The text has this: (§1) The following 96-well sample prep protocol was used for sample preparation.

For another assay, the target named is T2, UniProt E7ERA6 (Homo sapiens, UniProt E7ERA6).
T2 construct: 200 μL of lysate containing 5 mg/ml proteome was treated with 2 μL of 100× compound stock; endogenous in cells
Description: as §1

In the next assay the target is T3, UniProt Q7Z6E9 (Homo sapiens, UniProt Q7Z6E9).
T3 construct: 200 μL of lysate containing 5 mg/ml proteome was treated with 2 μL of 100× compound stock; endogenous in cells
As to conditions: read-out: KB02_100 uM_percent_inhibition.
Description: as §1

A further assay has as its target T4, UniProt O15344 (Homo sapiens, UniProt O15344).
T4 construct: Cells were resuspended in cold PBS on ice and sonicated with a probe sonicator to achieve lysis; endogenous in cells
To be noted: 500 uM.
Description: as §1

A further assay addresses T5, UniProt P0DH78 (Homo sapiens, UniProt P0DH78).
T5 construct: 200 μL of lysate containing 5 mg/ml proteome was treated with 2 μL of 100× compound stock; endogenous in cells
To be noted: read-out: percent_inhibition.
Description: as §1

The next assay deals with T6, UniProt Q9C040 (Homo sapiens, UniProt Q9C040).
T6 construct: 200 μL of lysate containing 5 mg/ml proteome was treated with 2 μL of 100× compound stock; endogenous in cells
Description: as §1

The target of a further assay is T7, UniProt Q8IUQ4 (Homo sapiens, UniProt Q8IUQ4).
T7 construct: 200 μL of lysate containing 5 mg/ml proteome was treated with 2 μL of 100× compound stock; endogenous in cells
Description: as §1

Another assay addresses T8, UniProt Q9UPQ7 (Homo sapiens, UniProt Q9UPQ7).
T8 construct: 200 μL of lysate containing 5 mg/ml proteome was treated with 2 μL of 100× compound stock; endogenous in cells
Description: as §1

A further assay addresses T9, UniProt O14512 (Homo sapiens, UniProt O14512).
T9 construct: 200 μL of lysate containing 5 mg/ml proteome was treated with 2 μL of 100× compound stock; endogenous in cells
To be noted: read-out: percent_inhibition.
Description: as §1

Another assay addresses T10, UniProt Q5VTB9 (Homo sapiens, UniProt Q5VTB9).
T10 construct: 200 μL of lysate containing 5 mg/ml proteome was treated with 2 μL of 100× compound stock; endogenous in cells
To be noted: read-out: percent_inhibition.
Description: as §1

Another assay has as its target T11, UniProt Q8N653 (Homo sapiens, UniProt Q8N653).
T11 construct: Cells were resuspended in cold PBS on ice and sonicated with a probe sonicator to achieve lysis; endogenous in cells
As to conditions: read-out: percent inhibition.
Description: as §1

For another assay, the target named is T12, UniProt O60291 (Homo sapiens, UniProt O60291).
T12 construct: Cells were resuspended in cold PBS on ice and sonicated with a probe sonicator to achieve lysis; endogenous in cells
Description: as §1

A further assay has as its target T13, UniProt Q13309 (Homo sapiens, UniProt Q13309).
T13 construct: 200 μL of lysate containing 5 mg/ml proteome was treated with 2 μL of 100× compound stock; endogenous in cells
As to conditions: read-out: percent_inhibition.
Description: as §1

The target of another assay is T14, UniProt Q9C037 (Homo sapiens, UniProt Q9C037).
T14 construct: 200 μL of lysate containing 5 mg/ml proteome was treated with 2 μL of 100× compound stock; endogenous in cells
To be noted: read-out: KB05_100 uM_percent_inhibition.
Description: as §1

Another assay concerns the target T15, UniProt Q9C030 (Homo sapiens, UniProt Q9C030).
T15 construct: 200 μL of lysate containing 5 mg/ml proteome was treated with 2 μL of 100× compound stock; endogenous in cells
As to conditions: read-out: KB05_500 uM_percent_inhibition.
Description: as §1

Another assay addresses T16, UniProt Q99942 (Homo sapiens, UniProt Q99942).
T16 construct: 200 μL of lysate containing 5 mg/ml proteome was treated with 2 μL of 100× compound stock; endogenous in cells
Description: as §1

Another assay addresses T17, UniProt Q9C019 (Homo sapiens, UniProt Q9C019).
T17 construct: 200 μL of lysate containing 5 mg/ml proteome was treated with 2 μL of 100× compound stock; endogenous in cells
As to conditions: 100 uM.
Description: as §1

The next assay addresses T18, UniProt Q9BUZ4 (Homo sapiens, UniProt Q9BUZ4).
T18 construct: 200 μL of lysate containing 5 mg/ml proteome was treated with 2 μL of 100× compound stock; endogenous in cells
To be noted: 100 uM.
Description: as §1

The next assay addresses T19, UniProt Q86TM6 (Homo sapiens, UniProt Q86TM6).
T19 construct: 200 μL of lysate containing 5 mg/ml proteome was treated with 2 μL of 100× compound stock; endogenous in cells
To be noted: 100 uM.
Description: as §1

For a further assay, the target named is T20, UniProt Q15025 (Homo sapiens, UniProt Q15025).
T20 construct: 200 μL of lysate containing 5 mg/ml proteome was treated with 2 μL of 100× compound stock; endogenous in cells
To be noted: 100 uM.
Description: as §1

T1 sequence (O00635 whole entry, change not shown): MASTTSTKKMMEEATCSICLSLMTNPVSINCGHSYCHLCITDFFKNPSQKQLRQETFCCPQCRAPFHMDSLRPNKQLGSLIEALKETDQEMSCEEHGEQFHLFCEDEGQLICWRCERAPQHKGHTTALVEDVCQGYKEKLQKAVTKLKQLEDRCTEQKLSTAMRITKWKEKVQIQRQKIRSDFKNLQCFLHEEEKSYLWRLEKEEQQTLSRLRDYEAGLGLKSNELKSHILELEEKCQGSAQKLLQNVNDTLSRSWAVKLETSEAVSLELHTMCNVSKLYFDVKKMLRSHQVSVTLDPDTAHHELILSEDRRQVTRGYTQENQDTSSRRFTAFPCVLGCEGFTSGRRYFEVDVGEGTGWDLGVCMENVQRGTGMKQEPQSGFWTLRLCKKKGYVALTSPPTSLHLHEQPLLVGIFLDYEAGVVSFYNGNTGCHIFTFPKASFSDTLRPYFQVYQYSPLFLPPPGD
T6 sequence (Q9C040 whole entry, change not shown): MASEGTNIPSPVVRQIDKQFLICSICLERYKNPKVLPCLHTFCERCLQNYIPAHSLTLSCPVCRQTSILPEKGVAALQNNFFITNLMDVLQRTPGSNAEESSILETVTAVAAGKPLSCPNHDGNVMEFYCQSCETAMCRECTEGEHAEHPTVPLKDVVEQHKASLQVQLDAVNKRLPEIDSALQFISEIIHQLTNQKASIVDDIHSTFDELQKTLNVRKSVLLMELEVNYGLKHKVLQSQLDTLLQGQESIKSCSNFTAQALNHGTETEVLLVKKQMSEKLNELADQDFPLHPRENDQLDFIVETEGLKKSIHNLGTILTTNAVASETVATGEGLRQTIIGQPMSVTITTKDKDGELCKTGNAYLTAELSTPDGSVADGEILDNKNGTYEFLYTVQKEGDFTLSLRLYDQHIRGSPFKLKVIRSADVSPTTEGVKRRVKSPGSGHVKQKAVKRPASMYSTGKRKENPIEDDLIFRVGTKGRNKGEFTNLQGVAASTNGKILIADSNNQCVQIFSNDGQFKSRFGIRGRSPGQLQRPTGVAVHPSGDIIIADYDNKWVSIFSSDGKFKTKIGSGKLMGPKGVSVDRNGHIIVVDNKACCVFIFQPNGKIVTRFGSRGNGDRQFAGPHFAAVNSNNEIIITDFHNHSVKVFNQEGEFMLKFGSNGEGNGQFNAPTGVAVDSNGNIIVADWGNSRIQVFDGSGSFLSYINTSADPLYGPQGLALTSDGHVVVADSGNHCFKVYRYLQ
T2 sequence (E7ERA6 whole entry, change not shown): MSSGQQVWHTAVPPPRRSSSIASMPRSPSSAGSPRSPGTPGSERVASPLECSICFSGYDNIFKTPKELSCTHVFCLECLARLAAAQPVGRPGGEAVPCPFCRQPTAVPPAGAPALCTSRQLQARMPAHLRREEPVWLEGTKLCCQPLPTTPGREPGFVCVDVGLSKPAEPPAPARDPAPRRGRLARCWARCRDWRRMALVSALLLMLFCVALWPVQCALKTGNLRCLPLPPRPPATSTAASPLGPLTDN
T16 sequence (Q99942 whole entry, change not shown): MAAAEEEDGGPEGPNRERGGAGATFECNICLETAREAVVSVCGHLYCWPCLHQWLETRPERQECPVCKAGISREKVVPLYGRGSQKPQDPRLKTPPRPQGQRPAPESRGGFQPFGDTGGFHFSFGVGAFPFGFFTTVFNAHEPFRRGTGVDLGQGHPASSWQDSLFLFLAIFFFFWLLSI
T8 sequence (Q9UPQ7 whole entry, change not shown): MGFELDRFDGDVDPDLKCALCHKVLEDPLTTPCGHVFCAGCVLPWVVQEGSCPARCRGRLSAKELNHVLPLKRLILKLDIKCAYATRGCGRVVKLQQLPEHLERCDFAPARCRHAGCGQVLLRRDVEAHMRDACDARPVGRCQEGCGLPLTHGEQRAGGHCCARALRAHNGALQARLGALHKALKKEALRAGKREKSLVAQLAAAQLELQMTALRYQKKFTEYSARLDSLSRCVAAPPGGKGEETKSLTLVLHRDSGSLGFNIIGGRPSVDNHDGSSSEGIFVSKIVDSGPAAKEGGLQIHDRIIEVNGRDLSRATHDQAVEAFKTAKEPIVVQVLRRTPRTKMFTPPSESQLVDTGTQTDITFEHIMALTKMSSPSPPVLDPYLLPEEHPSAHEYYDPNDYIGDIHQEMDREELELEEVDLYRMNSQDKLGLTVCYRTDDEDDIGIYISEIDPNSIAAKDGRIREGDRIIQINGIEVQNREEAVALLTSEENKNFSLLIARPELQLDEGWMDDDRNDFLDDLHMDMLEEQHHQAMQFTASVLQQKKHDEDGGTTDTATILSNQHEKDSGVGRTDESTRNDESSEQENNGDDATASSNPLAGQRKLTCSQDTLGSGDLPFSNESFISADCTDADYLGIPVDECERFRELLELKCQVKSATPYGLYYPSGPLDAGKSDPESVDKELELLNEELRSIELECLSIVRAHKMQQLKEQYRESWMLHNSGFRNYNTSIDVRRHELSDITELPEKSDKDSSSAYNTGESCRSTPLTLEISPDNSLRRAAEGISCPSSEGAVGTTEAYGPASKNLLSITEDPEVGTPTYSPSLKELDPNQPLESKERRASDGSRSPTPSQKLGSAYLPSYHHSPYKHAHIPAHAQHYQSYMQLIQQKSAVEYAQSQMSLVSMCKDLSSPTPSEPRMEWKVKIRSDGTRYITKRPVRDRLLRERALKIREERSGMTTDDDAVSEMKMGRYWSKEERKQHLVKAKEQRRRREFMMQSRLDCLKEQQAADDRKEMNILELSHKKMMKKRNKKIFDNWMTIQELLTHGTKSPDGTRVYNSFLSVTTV
T12 sequence (O60291 whole entry, change not shown): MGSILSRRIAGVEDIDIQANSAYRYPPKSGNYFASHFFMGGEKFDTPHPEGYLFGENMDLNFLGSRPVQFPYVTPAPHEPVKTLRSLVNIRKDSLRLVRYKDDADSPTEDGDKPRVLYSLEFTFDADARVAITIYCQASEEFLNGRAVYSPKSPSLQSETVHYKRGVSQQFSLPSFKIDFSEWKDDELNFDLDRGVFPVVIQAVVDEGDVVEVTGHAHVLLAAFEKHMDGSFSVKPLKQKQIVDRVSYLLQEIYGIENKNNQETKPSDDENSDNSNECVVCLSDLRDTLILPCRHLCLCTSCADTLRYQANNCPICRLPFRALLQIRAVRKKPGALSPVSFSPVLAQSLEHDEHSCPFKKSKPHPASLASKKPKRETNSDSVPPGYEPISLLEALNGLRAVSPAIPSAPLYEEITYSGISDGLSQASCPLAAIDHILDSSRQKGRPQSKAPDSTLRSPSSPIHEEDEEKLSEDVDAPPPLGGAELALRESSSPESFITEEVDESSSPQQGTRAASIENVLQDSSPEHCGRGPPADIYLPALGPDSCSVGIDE
T5 sequence (P0DH78 whole entry, change not shown): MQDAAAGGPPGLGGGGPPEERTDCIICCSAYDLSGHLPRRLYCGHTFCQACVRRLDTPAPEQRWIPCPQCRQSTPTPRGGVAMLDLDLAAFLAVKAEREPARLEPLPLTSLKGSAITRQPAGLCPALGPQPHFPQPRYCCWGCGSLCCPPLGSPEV
T7 sequence (Q8IUQ4 whole entry, change not shown): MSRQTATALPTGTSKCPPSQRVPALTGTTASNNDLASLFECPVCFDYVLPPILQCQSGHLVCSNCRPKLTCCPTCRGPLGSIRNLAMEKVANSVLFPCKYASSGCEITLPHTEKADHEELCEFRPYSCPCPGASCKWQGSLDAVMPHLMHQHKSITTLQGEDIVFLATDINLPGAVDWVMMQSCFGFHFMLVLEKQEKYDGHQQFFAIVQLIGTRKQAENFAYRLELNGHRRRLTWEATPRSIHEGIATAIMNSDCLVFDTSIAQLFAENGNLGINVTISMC
T15 sequence (Q9C030 whole entry, change not shown): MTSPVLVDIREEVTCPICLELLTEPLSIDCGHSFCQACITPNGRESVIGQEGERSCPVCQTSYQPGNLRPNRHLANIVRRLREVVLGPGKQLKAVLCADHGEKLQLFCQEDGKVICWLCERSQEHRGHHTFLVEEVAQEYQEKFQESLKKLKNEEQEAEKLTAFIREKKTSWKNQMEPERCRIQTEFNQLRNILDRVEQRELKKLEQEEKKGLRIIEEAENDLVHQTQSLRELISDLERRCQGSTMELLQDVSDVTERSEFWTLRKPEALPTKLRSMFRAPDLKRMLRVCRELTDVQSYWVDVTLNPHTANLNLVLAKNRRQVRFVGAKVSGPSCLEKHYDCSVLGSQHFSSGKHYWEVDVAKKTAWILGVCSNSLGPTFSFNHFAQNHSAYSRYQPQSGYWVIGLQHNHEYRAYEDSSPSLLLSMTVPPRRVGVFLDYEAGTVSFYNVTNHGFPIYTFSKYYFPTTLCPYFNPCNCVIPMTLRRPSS
T18 sequence (Q9BUZ4 whole entry, change not shown): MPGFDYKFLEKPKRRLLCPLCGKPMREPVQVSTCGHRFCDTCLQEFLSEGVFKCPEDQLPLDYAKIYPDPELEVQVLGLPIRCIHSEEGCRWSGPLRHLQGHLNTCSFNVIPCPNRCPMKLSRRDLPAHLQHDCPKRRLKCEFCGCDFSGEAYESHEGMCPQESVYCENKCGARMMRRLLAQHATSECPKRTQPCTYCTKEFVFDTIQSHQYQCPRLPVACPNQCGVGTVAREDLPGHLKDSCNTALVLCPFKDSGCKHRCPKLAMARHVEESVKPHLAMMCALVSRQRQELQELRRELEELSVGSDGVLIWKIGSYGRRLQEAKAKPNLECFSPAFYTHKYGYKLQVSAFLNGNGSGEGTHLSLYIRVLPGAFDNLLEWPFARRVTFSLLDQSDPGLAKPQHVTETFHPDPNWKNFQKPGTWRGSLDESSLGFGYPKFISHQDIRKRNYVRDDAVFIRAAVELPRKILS

`COc1ccc2c(c1)CCCN2C(=O)CCl` [KB02]: at UniProt O00635 (100 uM), the “KB02_100 uM_percent_inhibition” value is on record as 7%. Moreover, the inhibition at 100 µM at UniProt O00635 (read-out: KB02_100 uM_percent_inhibition) was found to be 8%; on UniProt Q7Z6E9, 23%; at UniProt P0DH78 (100 uM), 17%; at UniProt Q9C040 (100 uM, read-out: KB02_100 uM_percent_inhibition), 20%. Besides, the percent_inhibition at UniProt E7ERA6 (500 uM) is recorded as 38%. For the same molecule, the inhibition at 500 µM on UniProt E7ERA6 (read-out: percent_inhibition) came to 35%; on UniProt P0DH78 (500 uM) it was 67%; at UniProt Q9C040 (500 uM, read-out: KB02_500 uM_percent_inhibition) it was 32%. Besides, the percent inhibition at UniProt O15344 stood at 24%.
As for `C=CC(=O)N(c1ccccc1)c1ccc(Br)cc1` [KB05], the percent_inhibition at UniProt Q8IUQ4 (100 uM) is listed as 17%; at UniProt Q99942 (100 uM) it was 15%. In addition, the inhibition at 100 µM at UniProt Q8IUQ4 (read-out: percent_inhibition) stood at 9%; at UniProt Q9UPQ7 (read-out: KB05_100 uM_percent_inhibition), 20%; at UniProt Q5VTB9, 2%; at UniProt Q8N653, 11%; on UniProt O60291 (read-out: percent inhibition), 13%; on UniProt Q13309, 10%. In addition, the results for the inhibition at 100 µM at UniProt Q9C037 and on UniProt Q99942 (read-out: percent_inhibition) were 11% and 14%, respectively. Besides, the “KB05_100 uM_percent_inhibition” value on UniProt Q9UPQ7 (100 uM) is reported as 24%. Moreover, the inhibition at 500 µM on UniProt O14512 came to 89%; at UniProt Q9C030, 53%. This molecule displayed a percent inhibition on UniProt O60291 (100 uM) of 20%.
For the molecule `O=C(CCl)Nc1cc(C(F)(F)F)cc(C(F)(F)F)c1` [KBO3], on UniProt Q9C019, the “KB03_100 uM_percent_inhibition” value was found to be 18%. The percent_inhibition on UniProt Q9BUZ4 is listed as 30%; at UniProt Q86TM6 it was 19%; on UniProt Q15025, 3%.
